{"source": "paper PMC10887160", "about": "“Phanogracilins A–C, New Bibenzochromenones of Crinoid Phanogenia gracilis (Hartlaub, 1890)” (Biomolecules, 2024)", "key": {"Candida glabrata CYP51 [1]": {"target": "T1, Candida glabrata CYP51 (Nakaseomyces glabratus, UniProt P50859)", "T1 construct": "gene ERG11; recombinant, immobilised on CM5 SPR chip", "T1 sequence (P50859 whole entry)": "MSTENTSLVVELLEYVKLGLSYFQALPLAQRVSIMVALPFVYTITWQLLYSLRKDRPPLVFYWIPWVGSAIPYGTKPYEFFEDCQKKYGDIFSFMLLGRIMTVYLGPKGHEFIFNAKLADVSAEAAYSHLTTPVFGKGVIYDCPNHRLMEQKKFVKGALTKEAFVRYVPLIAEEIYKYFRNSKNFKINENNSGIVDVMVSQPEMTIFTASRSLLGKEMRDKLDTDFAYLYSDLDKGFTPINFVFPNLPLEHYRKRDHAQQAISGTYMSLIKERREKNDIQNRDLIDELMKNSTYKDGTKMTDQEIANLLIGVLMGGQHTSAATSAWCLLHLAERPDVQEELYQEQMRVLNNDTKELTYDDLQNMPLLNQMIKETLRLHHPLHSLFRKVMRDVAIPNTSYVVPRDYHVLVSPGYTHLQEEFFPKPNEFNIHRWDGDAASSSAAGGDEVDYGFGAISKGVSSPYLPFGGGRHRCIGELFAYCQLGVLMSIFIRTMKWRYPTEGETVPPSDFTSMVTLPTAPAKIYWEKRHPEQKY", "assay": "surface plasmon resonance", "assay_type": "binding"}, "Candida albicans CYP51": {"target": "T2, Candida albicans CYP51 (Candida albicans, UniProt P10613)", "T2 construct": "gene ERG11; recombinant, immobilised on CM5 SPR chip", "T2 sequence (P10613 whole entry)": "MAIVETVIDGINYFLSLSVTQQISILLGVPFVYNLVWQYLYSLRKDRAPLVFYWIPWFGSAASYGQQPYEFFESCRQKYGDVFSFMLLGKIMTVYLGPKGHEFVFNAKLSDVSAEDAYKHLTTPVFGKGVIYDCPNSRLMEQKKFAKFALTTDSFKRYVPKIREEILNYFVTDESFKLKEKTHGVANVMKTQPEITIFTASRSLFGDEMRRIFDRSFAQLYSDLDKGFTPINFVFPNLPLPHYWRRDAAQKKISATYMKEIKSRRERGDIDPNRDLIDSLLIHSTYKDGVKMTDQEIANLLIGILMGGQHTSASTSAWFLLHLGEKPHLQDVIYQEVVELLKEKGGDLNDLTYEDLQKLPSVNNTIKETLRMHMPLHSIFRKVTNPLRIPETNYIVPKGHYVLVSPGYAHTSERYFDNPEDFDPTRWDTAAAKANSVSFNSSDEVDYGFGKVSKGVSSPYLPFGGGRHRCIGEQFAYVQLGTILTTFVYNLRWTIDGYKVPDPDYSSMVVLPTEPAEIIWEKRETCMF", "assay": "surface plasmon resonance", "assay_type": "binding"}, "[2]": {"target": "T3, Mycobacterium tuberculosis CYP126 (Mycobacterium tuberculosis, UniProt P9WPN9)", "T3 sequence (P9WPN9 whole entry)": "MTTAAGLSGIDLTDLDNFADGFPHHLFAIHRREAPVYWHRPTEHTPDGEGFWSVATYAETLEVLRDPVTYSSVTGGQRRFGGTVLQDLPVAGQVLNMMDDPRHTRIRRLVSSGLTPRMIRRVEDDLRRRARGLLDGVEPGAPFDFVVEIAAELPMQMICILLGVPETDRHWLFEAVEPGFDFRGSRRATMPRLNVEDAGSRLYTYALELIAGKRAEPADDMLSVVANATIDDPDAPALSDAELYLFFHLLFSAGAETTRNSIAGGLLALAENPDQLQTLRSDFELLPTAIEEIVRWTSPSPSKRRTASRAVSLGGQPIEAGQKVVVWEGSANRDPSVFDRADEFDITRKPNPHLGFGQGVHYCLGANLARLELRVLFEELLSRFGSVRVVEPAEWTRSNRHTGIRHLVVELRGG", "assay": "surface plasmon resonance", "assay_type": "binding"}, "[3]": {"target": "T4, Mycobacterium tuberculosis CYP125 (Mycobacterium tuberculosis, UniProt P9WPP1)", "T4 sequence (P9WPP1 whole entry)": "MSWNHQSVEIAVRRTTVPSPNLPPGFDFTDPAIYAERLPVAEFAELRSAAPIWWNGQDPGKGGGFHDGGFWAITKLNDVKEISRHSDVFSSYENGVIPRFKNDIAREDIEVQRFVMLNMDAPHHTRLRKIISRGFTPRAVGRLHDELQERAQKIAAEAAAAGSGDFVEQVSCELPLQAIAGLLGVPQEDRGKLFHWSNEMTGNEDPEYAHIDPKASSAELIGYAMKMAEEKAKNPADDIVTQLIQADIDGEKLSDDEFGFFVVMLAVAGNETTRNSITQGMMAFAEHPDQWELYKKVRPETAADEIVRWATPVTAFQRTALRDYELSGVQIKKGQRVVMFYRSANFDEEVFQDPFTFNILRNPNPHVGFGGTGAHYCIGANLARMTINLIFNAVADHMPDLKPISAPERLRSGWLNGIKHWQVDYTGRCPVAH", "assay": "surface plasmon resonance", "assay_type": "binding"}, "[4]": {"target": "Mycobacterium tuberculosis CYP142 (Mycobacterium tuberculosis, UniProt P9WPL5)", "sequence (P9WPL5 whole entry)": "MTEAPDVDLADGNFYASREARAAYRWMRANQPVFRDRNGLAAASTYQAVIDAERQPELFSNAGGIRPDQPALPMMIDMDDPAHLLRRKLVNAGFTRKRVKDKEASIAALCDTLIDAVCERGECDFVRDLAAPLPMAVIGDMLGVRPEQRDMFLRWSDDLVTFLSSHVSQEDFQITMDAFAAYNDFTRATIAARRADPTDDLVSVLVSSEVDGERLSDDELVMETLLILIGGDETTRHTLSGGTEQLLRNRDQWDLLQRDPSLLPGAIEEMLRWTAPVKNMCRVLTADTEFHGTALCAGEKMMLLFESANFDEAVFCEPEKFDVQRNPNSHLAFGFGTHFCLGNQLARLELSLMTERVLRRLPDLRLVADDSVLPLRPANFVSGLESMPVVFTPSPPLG", "assay": "surface plasmon resonance", "assay_type": "binding"}, "Homo sapiens CYP51": {"target": "T5, Homo sapiens CYP51 (Homo sapiens, UniProt Q16850)", "T5 construct": "gene CYP51A1; recombinant, immobilised on CM5 SPR chip", "T5 sequence (Q16850 1-509)": "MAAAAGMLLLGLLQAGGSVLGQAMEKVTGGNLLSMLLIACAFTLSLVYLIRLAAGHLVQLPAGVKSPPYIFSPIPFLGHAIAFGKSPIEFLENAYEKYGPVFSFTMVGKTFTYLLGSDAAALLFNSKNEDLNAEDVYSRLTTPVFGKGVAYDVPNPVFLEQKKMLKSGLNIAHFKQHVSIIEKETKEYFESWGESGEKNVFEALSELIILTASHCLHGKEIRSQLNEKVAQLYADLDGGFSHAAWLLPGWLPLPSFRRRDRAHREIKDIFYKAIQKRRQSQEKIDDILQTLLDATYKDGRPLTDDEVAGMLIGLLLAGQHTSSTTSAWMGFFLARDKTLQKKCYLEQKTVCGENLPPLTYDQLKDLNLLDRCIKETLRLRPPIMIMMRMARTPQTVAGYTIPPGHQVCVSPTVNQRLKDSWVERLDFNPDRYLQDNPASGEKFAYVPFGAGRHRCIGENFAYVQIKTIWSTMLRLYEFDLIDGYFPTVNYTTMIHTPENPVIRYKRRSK", "assay": "surface plasmon resonance", "assay_type": "binding"}, "[5]": {"target": "Mycobacterium tuberculosis CYP124 (Mycobacterium tuberculosis, UniProt P9WPP3)", "sequence (P9WPP3 whole entry)": "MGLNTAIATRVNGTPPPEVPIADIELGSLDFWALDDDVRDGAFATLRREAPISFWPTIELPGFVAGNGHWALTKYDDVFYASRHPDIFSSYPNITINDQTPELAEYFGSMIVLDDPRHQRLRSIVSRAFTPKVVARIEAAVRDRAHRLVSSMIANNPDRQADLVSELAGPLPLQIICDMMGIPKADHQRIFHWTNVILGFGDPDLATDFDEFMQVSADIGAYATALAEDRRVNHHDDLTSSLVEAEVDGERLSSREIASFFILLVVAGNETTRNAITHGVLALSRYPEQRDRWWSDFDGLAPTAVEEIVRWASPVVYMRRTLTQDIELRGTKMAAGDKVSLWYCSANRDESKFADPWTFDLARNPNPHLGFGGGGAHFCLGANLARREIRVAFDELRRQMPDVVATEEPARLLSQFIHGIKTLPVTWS", "assay": "surface plasmon resonance", "assay_type": "binding"}, "[6]": {"target": "T6, Mycobacterium tuberculosis CYP51 (Mycobacterium tuberculosis, UniProt P9WPP9)", "T6 sequence (P9WPP9 whole entry)": "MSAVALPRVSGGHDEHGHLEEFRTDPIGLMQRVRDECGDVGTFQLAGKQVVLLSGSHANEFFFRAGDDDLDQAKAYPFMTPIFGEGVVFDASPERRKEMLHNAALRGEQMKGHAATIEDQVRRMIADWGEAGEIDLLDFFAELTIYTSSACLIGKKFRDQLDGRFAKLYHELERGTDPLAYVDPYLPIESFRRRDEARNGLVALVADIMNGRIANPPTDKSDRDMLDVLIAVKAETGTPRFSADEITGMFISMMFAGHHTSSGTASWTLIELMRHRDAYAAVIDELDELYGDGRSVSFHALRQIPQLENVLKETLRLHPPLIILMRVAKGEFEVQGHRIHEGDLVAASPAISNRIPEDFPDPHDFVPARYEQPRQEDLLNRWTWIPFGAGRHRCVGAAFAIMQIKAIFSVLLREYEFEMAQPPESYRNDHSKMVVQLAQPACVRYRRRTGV", "assay": "surface plasmon resonance", "assay_type": "binding"}, "[7]": {"target": "T4, Mycobacterium tuberculosis CYP125", "assay": "biochemical", "set-up": "SPR (Biacore, CM5 chip, immobilised CYP), two-state reaction model, global fit KD", "protocol": "(§1) Cytochrome P450 and steroid dehydrogenases are pharmaceutically significant drug targets. However, for most of these targets, there is no effective, selective and safe regulator. In this regard, many laboratories and pharmaceutical companies around the world are working on producing selective modulators of cytochrome P450 and human steroid dehydrogenase. […] Injection of a solution of ligands (studied CYPs) in immobilization buffer (10 mM sodium acetate, pH 4.5 in the case of CYP51 Candida albicans and Candida glabrata; 10 mM sodium acetate, pH 5.0 in the case of all other CYPs) was carried out for 5 min at flow rate 5 µL/min. After this, the chip was incubated for 1 hour in a docked state in the “Stand By” device mode at a measuring cell temperature of 25°C, which led to the hydrolysis of unreacted activated dextran groups. Table S4. The amount of the ligand immobilized on the chip. MT - Mycobacterium tuberculosis, human - Homo sapiens, Calb - Candida albicans, Cglab - Candida glabrata Ligands The amount of the ligand immobilized, RU CYP51_MT 5499 CYP124_MT 3315 CYP125_MT 5730 CYP126_MT 4590 CYP142_MT 2445 CYP51_human 8286 CYP51_Calb 2603 CYP51_Cglab 4888"}, "Candida glabrata CYP51 [8]": {"target": "T1, Candida glabrata CYP51", "assay": "biochemical", "set-up": "SPR (Biacore, CM5 chip, immobilised CYP), two-state reaction model, global fit KD", "settings": "SPR, two-state model; read-out: KD (мкM)", "protocol": "as §1"}, "[9]": {"target": "T3, Mycobacterium tuberculosis CYP126", "assay": "biochemical", "set-up": "SPR (Biacore, CM5 chip, immobilised CYP), two-state reaction model, global fit KD", "protocol": "as §1"}, "[10]": {"target": "T6, Mycobacterium tuberculosis CYP51", "assay": "biochemical", "set-up": "SPR (Biacore, CM5 chip, immobilised CYP), two-state reaction model, global fit KD", "protocol": "as §1"}}, "data": [{"smiles": "CCCc1cc(=O)c2c(O)c3c(O)c(-c4c(O)cc(O)c5c(O)c6c(=O)cc(CCC)oc6cc45)c(O)cc3cc2o1", "note": "[compound 1, 5,5′,6,6′,8,8′-hexahydroxy-2,2′-dipropyl-4H,4′H-[7,9′-bibenzo[g]chromene]-4,4′-dione]", "values": [{"measurement": "Kd", "setting": "Candida glabrata CYP51 [1]", "value": "> 10", "unit": "µM"}, {"measurement": "Kd", "setting": "Candida albicans CYP51", "value": "> 10", "unit": "µM"}, {"measurement": "Kd", "setting": "[2]", "value": "> 10", "unit": "µM"}, {"measurement": "Kd", "setting": "[3]", "value": "> 10", "unit": "µM"}, {"measurement": "Kd", "setting": "[4]", "value": "> 10", "unit": "µM"}, {"measurement": "Kd", "setting": "Homo sapiens CYP51", "value": "> 10", "unit": "µM"}, {"measurement": "Kd", "setting": "[5]", "value": "> 10", "unit": "µM"}, {"measurement": "Kd", "setting": "[6]", "value": "> 10", "unit": "µM"}, {"measurement": "Kd", "setting": "[7]", "value": 55.3, "unit": "µM"}, {"measurement": "Kd", "setting": "Candida glabrata CYP51 [8]", "value": 93.9, "unit": "µM"}, {"measurement": "Kd", "setting": "[9]", "value": 60.5, "unit": "µM"}, {"measurement": "Kd", "setting": "[10]", "value": 67.3, "unit": "µM"}]}]}
